pIC50: −log10 of the molar value.
What was measured:
[1] = system: different cancer cell lines; test: Cancer cell death, IC50; assay type: cell-based
From the text: Compound 1 inhibited isoprenyltransferase activity and molecular docking analysis predicted that the isoprene unit and the 4′-hydroxy group of Compound 1 may play important roles in the interaction between Compound 1 and isoprenyltransferase. In addition, Compound 1 increased the expression level of beclin-1 (three-fold), LC3-II/I (P<0.01) and […] formation in lung cancer cells. Compound 1 may therefore inhibit Ras activation through inhibition of isoprenyltransferase, leading to autophagic cell death.

[2] = Reproductive toxicity in vivo study; conditions: up to 80 mg/kg/day, Sprague-Dawley rats
[3] = Phase 1 clinical study: pharmacokinetics; assay type: in vivo
Method: (§1) A first-in-human phase 1 study was performed to determine the MTD and to evaluate PK, safety/tolerability and efficacy profiles of exemplary Compound 1 in NSCLC patients who are refractory to conventional treatment modalities. This open-label, non-randomized, dose-escalation study, which completed in February 2013, enrolled a total of 13 patients; seven males and six females, all of whom were Asian. A total of five patients were enrolled an accelerated titration phase (one patient each in the 50, 100, 200, 300, and 450 mg dose groups) and eight patients were enrolled in a standard titration phase (three patients in the 450 mg dose group and five patients in the 600 mg dose group).
Compound 1 will be administered as a single agent in this study at a dose of 600 mg per day (200 mg t.i.d. administered at 8-hour intervals). This dose regimen was chosen based on results from the Phase 1 clinical study involving NSCLC patients refractory to conventional treatment modalities, which reported good tolerability of Compound 1 up to 600 mg/day.

[4] = 28-day toxicity study in dogs; assay type: in vivo; conditions: 28-day study, dog
Method: […]. Two 28-days toxicity studies were conducted to determine no observed adverse effect level (NOAEL) for Sprague-Dawley rats and beagle dogs. […].

[5] = Phase 1 clinical study: safety/tolerability; assay type: in vivo
Method: as §1

[6] = system: NSCLC; test: Phase 1 clinical study: efficacy (tumor overall response); assay type: in vivo, human; conditions: end of treatment
Method: as §1
The PPS was defined in the Phase 1 study as all patients who completed at least three cycles of treatment with proper imaging assessment (RECIST v.1.1).

[7] = Tissue distribution in rat; assay type: in vivo; conditions: previous study
[8] = Safety pharmacology: respiratory system effect; assay type: in vivo; conditions: Sprague-Dawley rat
[9] = system: stage IV (including pleural effusion) non-squamous NSCLC; test: Phase II study in stage IV non-squamous NSCLC patients; assay type: in vivo, human
From the text: This is a single-arm, open-label, Phase II study in KRAS-positive and KRAS-negative patients with stage IV (including pleural effusion) non-squamous NSCLC who have failed two lines of anti-cancer therapy. This is defined as patients with radiologically confirmed disease progression following greater than or equal to two, but less than or equal to four, prior lines of systemic anti-cancer therapy. A maximum of 60 evaluable patients with NSCLC will receive Compound 1, of which 30 patients will be KRAS-positive and 30 patients KRAS-negative. An evaluable patient will have received at least one dose of Compound 1 and have a valid baseline tumor assessment. Enrollment will continue until the target number of evaluable patients has been enrolled.
Written informed consent must be obtained from all patients before initiating Screening. The Screening period will be up to 42 days in duration (Days −42 to −1). Following completion of all Screening assessments and confirmation of eligibility criteria, patients will receive Compound 1 200 mg three-times-a-day (t.i.d. at 8-hour intervals) on Day 0 for 12 weeks (one treatment cycle) or until documented evidence of disease progression, unacceptable toxicity, non-compliance or withdrawal of consent by the patient, or the investigator decides to discontinue treatment, whichever comes first. Study drug should be taken at 8-hour intervals. The time of study drug administration should be recorded in the patient diary.
The primary efficacy endpoint is progression-free survival (PFS) rate at 12 weeks, which is defined as the proportion of patients alive and progression-free at Week 12. Patients will be progression-free if they have no evidence of progressive disease (defined according to RECIST guidelines, version 1.1) from the start of treatment to Week 12.
The primary endpoint is the PFS rate at 12 weeks, defined as the proportion of patients alive and progression-free at Week 12. […]
Tumor response will be assessed at 6-week intervals during the first treatment cycle using the RECIST criteria version 1.1. […]

[10] = 28-day toxicity study in rats; assay type: in vivo; conditions: rat
Method: . Two 28-days toxicity studies were conducted to determine no observed adverse effect level (NOAEL) for Sprague-Dawley rats and beagle dogs. […]

[11] = 7-day toxicity study in dogs; conditions: beagle, dog, in vivo, 7-day study, read-out: maximum tolerated dose (MTD)
[12] = molecular target: hERG ion channel (Homo sapiens, UniProt Q12809); test: Safety pharmacology: binding activity with hERG ion channel in vitro
hERG ion channel, sequence (Q12809 whole entry): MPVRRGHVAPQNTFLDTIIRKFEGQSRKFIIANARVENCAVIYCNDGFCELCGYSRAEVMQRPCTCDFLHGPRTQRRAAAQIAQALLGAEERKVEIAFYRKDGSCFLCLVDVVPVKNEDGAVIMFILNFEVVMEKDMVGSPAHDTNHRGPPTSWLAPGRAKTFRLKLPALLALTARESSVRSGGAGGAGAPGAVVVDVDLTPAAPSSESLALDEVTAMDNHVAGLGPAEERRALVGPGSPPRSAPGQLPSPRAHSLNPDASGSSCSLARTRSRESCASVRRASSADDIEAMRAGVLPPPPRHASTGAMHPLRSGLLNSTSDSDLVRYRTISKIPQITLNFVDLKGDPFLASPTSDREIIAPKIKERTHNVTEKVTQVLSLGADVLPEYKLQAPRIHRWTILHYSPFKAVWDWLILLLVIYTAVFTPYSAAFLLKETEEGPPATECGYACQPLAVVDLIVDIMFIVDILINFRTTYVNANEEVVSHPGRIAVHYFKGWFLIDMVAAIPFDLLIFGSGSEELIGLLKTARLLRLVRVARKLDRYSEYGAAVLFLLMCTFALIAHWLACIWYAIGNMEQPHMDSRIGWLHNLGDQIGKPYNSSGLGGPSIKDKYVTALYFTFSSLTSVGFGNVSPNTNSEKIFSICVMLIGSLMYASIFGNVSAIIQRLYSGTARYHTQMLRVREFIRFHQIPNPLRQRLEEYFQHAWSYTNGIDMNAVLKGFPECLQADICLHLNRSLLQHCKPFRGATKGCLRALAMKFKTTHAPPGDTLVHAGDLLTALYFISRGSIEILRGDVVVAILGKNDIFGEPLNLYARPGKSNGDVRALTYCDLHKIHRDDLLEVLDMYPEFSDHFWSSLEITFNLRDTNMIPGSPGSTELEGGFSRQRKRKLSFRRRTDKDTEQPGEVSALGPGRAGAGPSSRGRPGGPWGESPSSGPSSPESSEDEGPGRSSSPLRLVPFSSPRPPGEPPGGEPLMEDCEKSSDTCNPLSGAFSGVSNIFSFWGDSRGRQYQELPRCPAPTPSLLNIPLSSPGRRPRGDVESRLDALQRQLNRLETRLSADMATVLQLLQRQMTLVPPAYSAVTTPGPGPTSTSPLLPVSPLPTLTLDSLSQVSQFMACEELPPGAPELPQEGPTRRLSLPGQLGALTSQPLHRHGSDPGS

[13] = Safety pharmacology: cardiovascular effect; assay type: in vivo; conditions: beagle dogs
[14] = 7-day toxicity study in rats; conditions: Sprague-Dawley, rat, in vivo, 7-day study, read-out: maximum tolerated dose (MTD)
[15] = Safety pharmacology: central nervous system effect; assay type: in vivo; conditions: Sprague-Dawley rat
[16] = Genotoxicity tests (Ames, mammalian cell gene mutation, micronucleus, erythrocyte micronucleus)
[17] = Toxicokinetic evaluations in rats and dogs; assay type: in vivo; conditions: for dose proportionality of exposure: rat and dog
Method: Toxicokinetic evaluations were performed on a 7-day dog study (100, 250, 500 mg/kg/day single dose, 500 mg/kg/day 3 days dose) and the two 28-day studies mentioned above (Rat: 10, 30, 100 mg/kg/day single and 28 days dose; Dog: 10, 30, 100 mg/kg/day single and 28 days dose).

[18] = Preclinical pharmacokinetic studies; assay type: in vivo; conditions: preclinical PK studies
[19] = system: epidermal growth factor receptor (EGFR); conditions: human, in vivo; cited from earlier work

COC1=C(OC)C(O)C(C/C=C(\C)CC/C=C(\C)CCC=C(C)C)C(C)C1=O (stereo not shown) [Compound 1, 4-hydroxy-2,3-dimethoxy-6-methyl-5-(3,7,11-trimethyldodeca-2,6,10-trienyl)cyclohex-2-enone]
pIC50 [1]: 5.19 to 5.65 | reproductive toxicity [2]: no reproductive toxicity | differences in AUC0-24 within the 100-300 mg dose range ([3]; Day 1 and Day 28): no significant differences | proportionality of AUC0-24 to dose ([3]; Day 1 and Day 28): not linearly proportional | dose with the highest peak concentration (Cmax) over the 100-300 mg dose range ([3]; Day 28): 200 mg | extent of absorption versus dose ([3]; human, in vivo): dose proportional | rate and extent of absorption versus dose ([3]; human, in vivo): increased in a dose proportional manner | rate of absorption versus dose ([3]; human, in vivo): non-dose proportional | highest non-severely toxic dose (HNSTD) [4]: 30 mg/kg/day | patients with Grade 3 TEAEs ([5]; 200 mg vertigo, 450 mg decreased appetite and encephalitis, unrelated to study drug): two | laboratory abnormality recorded as a TEAE ([5]; 450 mg dose group, considered unrelated to study drug): one case of hematuria of Grade 1 | patients with treatment-related TEAEs ([5]; 13 patients treated): 100% | Dose Limiting Toxicities (DLTs) ([5]; 50, 100, 200, 300, 450, 600 mg, Intent-to-Treat Population): No Dose Limiting Toxicities | toxicity profile ([5]; 50-600 mg dose levels): low toxicity profile | safety and tolerability ([5]; 50-600 mg dose levels, daily for 4 weeks): generally safe and well tolerated | clinically significant changes in vital sign, ECG and physical examination parameters ([5]; Follow-Up Visit): None of the patients | diarrhea, patients ([5]; Grade 1): 69.2% | gastrointestinal disorders, patients ([5]; Grade 1): 53.8% | nausea, patients ([5]; Grade 1): 46.2% | vomiting, patients ([5]; Grade 1): 46.2% | diarrhea, patients ([5]; Grade 2): 7.7% | gastrointestinal disorders, patients ([5]; Grade 2): 38.5% | nausea, patients ([5]; Grade 2): 7.7% | vomiting, patients ([5]; Grade 2): 23.1% | Grade 4 treatment-emergent adverse events (TEAEs) ([5]; NCI-CTCAE Version 4.03): No Grade 4 | diarrhea, patients ([5]; all grades): 76.9% | gastrointestinal disorders, patients ([5]; all grades): 92.3% | nausea, patients ([5]; all grades): 53.8% | vomiting, patients ([5]; all grades): 69.2% | ECOG score ([5]; all patients at all time points except two patients in the 450 mg group (scores 4 and 2)): 1 | patients reporting serious adverse events (SAEs) ([5]; two each at 450 and 600 mg, none related to study drug): four | proportion of Per-Protocol patients with stable disease [6]: 100% | tissue with the highest accumulation [7]: lung tissue | respiratory system effect [8]: no particular safety concerns | subjects alive or progression free at 12 week ([9]; 200 mg t.i.d., overall population): 4 subjects out of 20 | tumor progression free rate or proportion of patients alive at 12 weeks ([9]; KRAS mutant patients, 200 mg t.i.d.): 3/14 | efficacy for target and non-target lesions at lung related sites ([9]; preliminary phase 2 result): 5/11 | toxicity of the high dose ([10]; 28-day study, 100 mg/kg/day): not severely toxic | NOAEL at 28 days ([10]; Sprague-Dawley, in vivo): 30 mg/kg/day | MTD at 7 days [11]: 100 mg/kg/day | binding activity with hERG ion channel [12]: no particular safety concerns | cardiovascular effect [13]: no particular safety concerns | MTD at 7 days [14]: 100 mg/kg/day | central nervous system effect [15]: no particular safety concerns | genotoxicity [16]: No genotoxicity | Tmax ([17]; Sprague-Dawley (rat), beagle (dog), rat, dog, in vivo, rats and dogs, 7-day and 28-day studies, read-out: peak time (Tmax)): 0.25 to 6 h | dose proportionality of exposure ([17]; after 1 day of treatment): trend of dose proportionality | dose proportionality of exposure ([17]; after 28 days of treatment): inconsistent phenomena | absorption [18]: fast absorption | metabolism profile [18]: CYP involved metabolism | organ distribution [18]: substantial organ distribution especially in the lung, heart, and kidney

C#Cc1cccc(Nc2ncnc3cc(OCCOC)c(OCCOC)cc23)c1 [erlotinib]
response rate [19]: 60%

Reference: patent publication US11786485B2, “Methods and compositions for treating advanced stage non-small cell lung cancer” (Golden Biotechnology Corporation, priority 2016, dated 2023)
